Read-outs that look alike come from different tables or passages of the source.
Tested on: adhesion of U937 cells to HUVEC stimulated by IL-1β or TNFα
Assay: Inhibitory effect on cell adhesion (U937 cells adhering to stimulated HUVEC)
Assay type: cell-based
Conditions: Homo sapiens, compound at 1 μM
Protocol: This test was conducted by reference to the method of Ross et al. (J. Biol. Chem., 267, 8537-8543 (1992)). More specifically, after human umbilical venous endothelial cells (HUVEC) were cultured on a 48-well plate to confluent growth, IL-1β or TNFα was added thereto. Upon elapsed time of 5 hours after the addition, U937, which is a human monocytic/histocytic cell fluorescence-labeled with PKH2 (product of Dainippon Pharmaceutical Co., Ltd.), was added in a proportion of 1×10^6 cells per well. After the plate was left at rest at room temperature for 1 hour, unadhered U937 was washed out and lysed in 1% Triton X-100 to measure a remaining fluorescence intensity (excitation wavelength: 480 nm; measuring wavelength: 530 nm). HUVEC and U937 were cultured in EGM-2 (product of Sanko Junyaku K.K.) and 10% FCS-containing RPMI1640, respectively. Each test agent was added to HUVEC upon the addition of IL-1β or TNFα and to U937 24 hours prior to the cell adhesion test. The inhibitory activity was calculated out according to the equation [100-(C−B)/(A−B)×100 (%)], wherein A is the number of U937 cells adhered to HUVEC stimulated by IL-1β or TNFα when no test agent was added, B is the number of U937 cells adhered to HUVEC not stimulated by IL-1β or TNFα when no test agent was added, and C is the number of U937 cells adhered to HUVEC stimulated by IL-1β or TNFα when the test agent was added. As control compounds, Test Compound 1 described in Japanese Patent Application Laid-Open No. 9-143075 and dilazep described in Japanese Patent Application Laid-Open No. 11-92382 were simultaneously evaluated.

[1] = HUVEC stimulated by IL-1β, read-out: Percent inhibition (%) Stimulation by IL-1β
[2] = HUVEC stimulated by TNFα, read-out: Percent inhibition (%) Stimulation by TNFα

| Compound | inhibition at 1 µM [1] [%] | inhibition at 1 µM [2] [%] |
| --- | --- | --- |
| COc1cc(C(=O)Nc2nc(CN3CCN(Cc4csc(NC(=O)c5cc(OC)c(OC)c(OC)c5)n4)CC3)cs2)cc(OC)c1OC [Example 8, N,N′-bis[[2-(3,4,5-Trimethoxybenzamido)-thiazol-4-yl]methyl]piperazine] | 64 | 58 |
| COc1cc(C#Cc2nc(CN3CCCN(Cc4csc(C#Cc5cc(OC)c(OC)c(OC)c5)n4)CC3)cs2)cc(OC)c1OC [Example 7, N,N′-bis[[2-(3,4,5-Trimethoxyphenylethynyl)-thiazol-4-yl]methyl]homopiperazine] | 46 | 60 |
| COc1cc(-c2nc(CCCN3CCCN(CCCc4csc(-c5cc(OC)c(OC)c(OC)c5)n4)CC3)cs2)cc(OC)c1OC [Example 6, N,N′-bis[3-(2-(3,4,5-Trimethoxyphenyl)-thiazol-4-yl)propyl]homopiperazine] | 54 | 45 |
| COc1cc(C(=O)OCCCN2CCCN(CCCOC(=O)c3cc(OC)c(OC)c(OC)c3)CC2)cc(OC)c1OC [Dilazep, dilazep, reference compound] | 0 | 12 |
| COc1cc(C(=O)Nc2nc(CN3CCCN(Cc4csc(NC(=O)c5cc(OC)c(OC)c(OC)c5)n4)CC3)cs2)cc(OC)c1OC [Example 9, N,N′-bis[[2-(3,4,5-Trimethoxybenzamido)-thiazol-4-yl]methyl]homopiperazine] | 40 | 50 |
| COc1cc(-c2cc(CN3CCN(Cc4cc(-c5cc(OC)c(OC)c(OC)c5)n(Cc5ccccc5)n4)CC3)nn2Cc2ccccc2)cc(OC)c1OC [Example 16, N,N′-bis[[1-Benzyl-5-(3,4,5-trimethoxy-phenyl)pyrazol-3-yl]methyl]piperazine] | 30 | 51 |
| COc1cc(-c2nc(C)c(CN3CCCN(Cc4sc(-c5cc(OC)c(OC)c(OC)c5)nc4C)CC3)s2)cc(OC)c1OC [Example 11, N,N′-bis[[4-Methyl-2-(3,4,5-trimethoxy-phenyl)thiazol-5-yl]methyl]homopiperazine Dimaleate] | 33 | 53 |
